# From patent publication US5843889A, “Glycopeptide antibiotic derivatives” (Eli Lilly and Company, priority 1997, dated 1998)
# Key:
# Assay in all cases: MIC, standard broth micro-dilution assay
# Assay type in all cases: cell-based
# Entercoccus faecalis 276 = test system: Entercoccus faecalis 276
# Protocol: (§1) The formula I compounds have in vitro and in vivo activity against Gram-positive pathogenic bacteria. The MIC's were determined using a standard broth micro-dilution assay.
# [1] = test system: Entercoccus gallinarum 245
# Protocol: as §1
# [2] = test system: Entercoccus faecalis 2041
# Protocol: as §1
SMILES,MIC (Entercoccus faecalis 276),MIC [1],MIC [2]
"CNC(CC(C)C)C(=O)NC1C(=O)NC(CC(N)=O)C(=O)NC2C(=O)NC3C(=O)NC(C(=O)NC(C(=O)O)c4cc(O)cc(O)c4-c4cc3ccc4O)C(OC3CC(C)(N)C(O)C(C)O3)c3ccc(c(Cl)c3)Oc3cc2cc(c3OC2OC(CO)C(O)C(O)C2OC2CC(C)(NCc3ccc(-c4ccc(C(F)(F)F)cc4)cc3)C(O)C(C)O2)Oc2ccc(cc2Cl)C1O (stereo not drawn) [Compound 216, 4-[4-trifluromethylphenyl]benzyl]",0.5 µg/mL,–,–
CNC(CC(C)C)C(=O)NC1C(=O)NC(CC(N)=O)C(=O)NC2C(=O)NC3C(=O)NC(C(=O)NC(C(=O)O)c4cc(O)cc(O)c4-c4cc3ccc4O)C(OC3CC(C)(N)C(O)C(C)O3)c3ccc(c(Cl)c3)Oc3cc2cc(c3OC2OC(CO)C(O)C(O)C2OC2CC(C)(NCc3ccc4c(c3)CCCC4)C(O)C(C)O2)Oc2ccc(cc2Cl)C1O (stereo not drawn) [Compound 168],–,2 µg/mL,≤ 0.06 µg/mL
"CNC(CC(C)C)C(=O)NC1C(=O)NC(CC(N)=O)C(=O)NC2C(=O)NC3C(=O)NC(C(=O)NC(C(=O)O)c4cc(O)cc(O)c4-c4cc3ccc4O)C(OC3CC(C)(N)C(O)C(C)O3)c3ccc(c(Cl)c3)Oc3cc2cc(c3OC2OC(CO)C(O)C(O)C2OC2CC(C)(NCc3ccc(I)s3)C(O)C(C)O2)Oc2ccc(cc2Cl)C1O (stereo not drawn) [Compound 74, 5-iodo-2-thienylmethyl]",–,≤ 0.06 µg/mL,≤ 0.06 µg/mL
"CNC(CC(C)C)C(=O)NC1C(=O)NC(CC(N)=O)C(=O)NC2C(=O)NC3C(=O)NC(C(=O)NC(C(=O)O)c4cc(O)cc(O)c4-c4cc3ccc4O)C(OC3CC(C)(N)C(O)C(C)O3)c3ccc(c(Cl)c3)Oc3cc2cc(c3OC2OC(CO)C(O)C(O)C2OC2CC(C)(NCc3ccc(-c4ccc(C)c(C)c4)cc3)C(O)C(C)O2)Oc2ccc(cc2Cl)C1O (stereo not drawn) [Compound 221, 4-[3,4-dimethylphenyl]benzyl]",–,2 µg/mL,≤ 0.06 µg/mL
"CC#CCCCCCCCCCCOc1ccc(CNC2(C)CC(OC3C(Oc4c5cc6cc4Oc4ccc(cc4Cl)C(OC4CC(C)(N)C(O)C(C)O4)C4NC(=O)C(NC(=O)C6NC(=O)C(CC(N)=O)NC(=O)C(NC(=O)C(CC(C)C)NC)C(O)c6ccc(c(Cl)c6)O5)c5ccc(O)c(c5)-c5c(O)cc(O)cc5C(C(=O)O)NC4=O)OC(CO)C(O)C3O)OC(C)C2O)cc1 (stereo not drawn) [Compound 233, 4-[11-tridecynyloxy]benzyl]",8 µg/mL,–,–
"CNC(CC(C)C)C(=O)NC1C(=O)NC(CC(N)=O)C(=O)NC2C(=O)NC3C(=O)NC(C(=O)NC(C(=O)O)c4cc(O)cc(O)c4-c4cc3ccc4O)C(OC3CC(C)(N)C(O)C(C)O3)c3ccc(c(Cl)c3)Oc3cc2cc(c3OC2OC(CO)C(O)C(O)C2OC2CC(C)(NCc3cc(-c4ccccc4)ccc3O)C(O)C(C)O2)Oc2ccc(cc2Cl)C1O (stereo not drawn) [Compound 85, 2-hydroxy-5-phenylbenzyl]",–,2 µg/mL,≤ 0.06 µg/mL
"CNC(CC(C)C)C(=O)NC1C(=O)NC(CC(N)=O)C(=O)NC2C(=O)NC3C(=O)NC(C(=O)NC(C(=O)O)c4cc(O)cc(O)c4-c4cc3ccc4O)C(OC3CC(C)(N)C(O)C(C)O3)c3ccc(c(Cl)c3)Oc3cc2cc(c3OC2OC(CO)C(O)C(O)C2OC2CC(C)(NCC3CCC4CCCC43)C(O)C(C)O2)Oc2ccc(cc2Cl)C1O (stereo not drawn) [Compound 190, cis-bicyclo[3.3.0]octane-2-methyl]",–,8 µg/mL,≤ 0.06 µg/mL
"CNC(CC(C)C)C(=O)NC1C(=O)NC(CC(N)=O)C(=O)NC2C(=O)NC3C(=O)NC(C(=O)NC(C(=O)O)c4cc(O)cc(O)c4-c4cc3ccc4O)C(OC3CC(C)(N)C(O)C(C)O3)c3ccc(c(Cl)c3)Oc3cc2cc(c3OC2OC(CO)C(O)C(O)C2OC2CC(C)(NCC3=CCC(C(C)C)CC3)C(O)C(C)O2)Oc2ccc(cc2Cl)C1O (stereo not drawn) [Compound 171, 1-cyclohexenyl-4-isopropylmethyl]",–,8 µg/mL,≤ 0.06 µg/mL
"CNC(CC(C)C)C(=O)NC1C(=O)NC(CC(N)=O)C(=O)NC2C(=O)NC3C(=O)NC(C(=O)NC(C(=O)O)c4cc(O)cc(O)c4-c4cc3ccc4O)C(OC3CC(C)(N)C(O)C(C)O3)c3ccc(c(Cl)c3)Oc3cc2cc(c3OC2OC(CO)C(O)C(O)C2OC2CC(C)(NCC3CCCCC3)C(O)C(C)O2)Oc2ccc(cc2Cl)C1O (stereo not drawn) [Compound 161, cyclohexylmethyl]",–,8 µg/mL,≤ 0.06 µg/mL
"CN[C@H](CC(C)C)C(=O)N[C@H]1C(=O)N[C@@H](CC(N)=O)C(=O)N[C@H]2C(=O)N[C@H]3C(=O)N[C@H](C(=O)N[C@H](C(=O)O)c4cc(O)cc(O)c4-c4cc3ccc4O)[C@H](O[C@H]3C[C@](C)(N)[C@@H](O)[C@H](C)O3)c3ccc(c(Cl)c3)Oc3cc2cc(c3O[C@@H]2O[C@H](CO)[C@@H](O)[C@H](O)[C@H]2O[C@H]2C[C@](C)(NCc3ccc(Oc4ccc(Cl)cc4)c([N+](=O)[O-])c3)[C@@H](O)[C@H](C)O2)Oc2ccc(cc2Cl)[C@H]1O [Compound 94, 4-[4-chlorophenoxy]-3-nitrobenzyl]",–,2 µg/mL,≤ 0.06 µg/mL
"CN[C@H](CC(C)C)C(=O)N[C@H]1C(=O)N[C@@H](CC(N)=O)C(=O)N[C@H]2C(=O)N[C@H]3C(=O)N[C@H](C(=O)N[C@H](C(=O)O)c4cc(O)cc(O)c4-c4cc3ccc4O)[C@H](O[C@H]3C[C@](C)(N)[C@@H](O)[C@H](C)O3)c3ccc(c(Cl)c3)Oc3cc2cc(c3O[C@@H]2O[C@H](CO)[C@@H](O)[C@H](O)[C@H]2O[C@H]2C[C@](C)(NCc3ccc(OCc4ccc(Cl)cc4)cc3)[C@@H](O)[C@H](C)O2)Oc2ccc(cc2Cl)[C@H]1O [Compound 93, 4-[4-chlorobenzyloxy]benzyl]",–,1 µg/mL,≤ 0.06 µg/mL

# More lines, now with the values ahead:
MIC (Entercoccus faecalis 276),MIC [1],MIC [2],SMILES
0.5 µg/mL,–,–,"CNC(CC(C)C)C(=O)NC1C(=O)NC(CC(N)=O)C(=O)NC2C(=O)NC3C(=O)NC(C(=O)NC(C(=O)O)c4cc(O)cc(O)c4-c4cc3ccc4O)C(OC3CC(C)(N)C(O)C(C)O3)c3ccc(c(Cl)c3)Oc3cc2cc(c3OC2OC(CO)C(O)C(O)C2OC2CC(C)(NCc3ccc(OCCCC#N)cc3)C(O)C(C)O2)Oc2ccc(cc2Cl)C1O (stereo not drawn) [Compound 55, 4-[3-cyanopropoxy]benzyl]"
1 µg/mL,–,–,"CNC(CC(C)C)C(=O)NC1C(=O)NC(CC(N)=O)C(=O)NC2C(=O)NC3C(=O)NC(C(=O)NC(C(=O)O)c4cc(O)cc(O)c4-c4cc3ccc4O)C(OC3CC(C)(N)C(O)C(C)O3)c3ccc(c(Cl)c3)Oc3cc2cc(c3OC2OC(CO)C(O)C(O)C2OC2CC(C)(NCc3ccc(C(F)(F)F)cc3)C(O)C(C)O2)Oc2ccc(cc2Cl)C1O (stereo not drawn) [Compound 37, 4-trifluoromethylbenzyl]"
≤ 0.06 µg/mL,–,–,"CNC(CC(C)C)C(=O)NC1C(=O)NC(CC(N)=O)C(=O)NC2C(=O)NC3C(=O)NC(C(=O)NC(C(=O)O)c4cc(O)cc(O)c4-c4cc3ccc4O)C(OC3CC(C)(N)C(O)C(C)O3)c3ccc(c(Cl)c3)Oc3cc2cc(c3OC2OC(CO)C(O)C(O)C2OC2CC(C)(NCc3ccncc3)C(O)C(C)O2)Oc2ccc(cc2Cl)C1O (stereo not drawn) [Compound 26, 4-pyridylmethyl]"
–,1 µg/mL,≤ 0.06 µg/mL,"CNC(CC(C)C)C(=O)NC1C(=O)NC(CC(N)=O)C(=O)NC2C(=O)NC3C(=O)NC(C(=O)NC(C(=O)O)c4cc(O)cc(O)c4-c4cc3ccc4O)C(OC3CC(C)(N)C(O)C(C)O3)c3ccc(c(Cl)c3)Oc3cc2cc(c3OC2OC(CO)C(O)C(O)C2OC2CC(C)(NCc3ccc(Oc4ccc(OC)cc4)cc3)C(O)C(C)O2)Oc2ccc(cc2Cl)C1O (stereo not drawn) [Compound 98, 4-[4-methoxyphenoxy]benzyl]"
–,1 µg/mL,≤ 0.06 µg/mL,"CNC(CC(C)C)C(=O)NC1C(=O)NC(CC(N)=O)C(=O)NC2C(=O)NC3C(=O)NC(C(=O)NC(C(=O)O)c4cc(O)cc(O)c4-c4cc3ccc4O)C(OC3CC(C)(N)C(O)C(C)O3)c3ccc(c(Cl)c3)Oc3cc2cc(c3OC2OC(CO)C(O)C(O)C2OC2CC(C)(NCCCCC#Cc3ccccc3)C(O)C(C)O2)Oc2ccc(cc2Cl)C1O (stereo not drawn) [Compound 235, 6-phenyl-5-hexynyl]"
–,1 µg/mL,≤ 0.06 µg/mL,"CN[C@H](CC(C)C)C(=O)N[C@H]1C(=O)N[C@@H](CC(N)=O)C(=O)N[C@H]2C(=O)N[C@H]3C(=O)N[C@H](C(=O)N[C@H](C(=O)O)c4cc(O)cc(O)c4-c4cc3ccc4O)[C@H](O[C@H]3C[C@](C)(N)[C@@H](O)[C@H](C)O3)c3ccc(c(Cl)c3)Oc3cc2cc(c3O[C@@H]2O[C@H](CO)[C@@H](O)[C@H](O)[C@H]2O[C@H]2C[C@](C)(NCc3ccc(Oc4ccc(C)cc4)cc3)[C@@H](O)[C@H](C)O2)Oc2ccc(cc2Cl)[C@H]1O [Compound 95, 4-[4-methylphenoxy]benzyl]"
0.26 µg/mL,–,–,"CNC(CC(C)C)C(=O)NC1C(=O)NC(CC(N)=O)C(=O)NC2C(=O)NC3C(=O)NC(C(=O)NC(C(=O)O)c4cc(O)cc(O)c4-c4cc3ccc4O)C(OC3CC(C)(N)C(O)C(C)O3)c3ccc(c(Cl)c3)Oc3cc2cc(c3OC2OC(CO)C(O)C(O)C2OC2CC(C)(NCc3c(OC)ccc4ccccc34)C(O)C(C)O2)Oc2ccc(cc2Cl)C1O (stereo not drawn) [Compound 9, 2-methoxy-1-naphthylmethyl]"
–,2 µg/mL,≤ 0.06 µg/mL,"CNC(CC(C)C)C(=O)NC1C(=O)NC(CC(N)=O)C(=O)NC2C(=O)NC3C(=O)NC(C(=O)NC(C(=O)O)c4cc(O)cc(O)c4-c4cc3ccc4O)C(OC3CC(C)(N)C(O)C(C)O3)c3ccc(c(Cl)c3)Oc3cc2cc(c3OC2OC(CO)C(O)C(O)C2OC2CC(C)(NCCCCc3ccc(OC)cc3)C(O)C(C)O2)Oc2ccc(cc2Cl)C1O (stereo not drawn) [Compound 172, 4-[4-methoxyphenyl]butyl]"
–,1 µg/mL,≤ 0.06 µg/mL,"CNC(CC(C)C)C(=O)NC1C(=O)NC(CC(N)=O)C(=O)NC2C(=O)NC3C(=O)NC(C(=O)NC(C(=O)O)c4cc(O)cc(O)c4-c4cc3ccc4O)C(OC3CC(C)(N)C(O)C(C)O3)c3ccc(c(Cl)c3)Oc3cc2cc(c3OC2OC(CO)C(O)C(O)C2OC2CC(C)(NCCCCCCc3ccccc3)C(O)C(C)O2)Oc2ccc(cc2Cl)C1O (stereo not drawn) [Compound 196, 6-phenylhexyl]"
–,1 µg/mL,≤ 0.06 µg/mL,"CNC(CC(C)C)C(=O)NC1C(=O)NC(CC(N)=O)C(=O)NC2C(=O)NC3C(=O)NC(C(=O)NC(C(=O)O)c4cc(O)cc(O)c4-c4cc3ccc4O)C(OC3CC(C)(N)C(O)C(C)O3)c3ccc(c(Cl)c3)Oc3cc2cc(c3OC2OC(CO)C(O)C(O)C2OC2CC(C)(NCc3ccc(OCCCc4ccccc4)cc3)C(O)C(C)O2)Oc2ccc(cc2Cl)C1O (stereo not drawn) [Compound 223, 4-[3-phenylpropyloxy]benzyl]"
